According to the NIST ThermoML archive (doi:10.1016/j.jct.2013.10.031):

Assay: wn = mass fraction of the nth substance listed
Details: Gas, Burnett expansion method

FCC(F)(F)F [1,1,1,2-tetrafluoroethane] + CCC
Details	mass density [kg/m3]
251.84 K, 167.7 kPa, w2 = 0.4	9.96073
251.85 K, 201.9 kPa, w2 = 0.4	13.2676
251.86 K, 140.8 kPa, w2 = 0.4	7.47724
251.88 K, 122.9 kPa, w2 = 0.4	5.6131
251.89 K, 177.7 kPa, w2 = 0.45	5.82156
251.9 K, 103.2 kPa, w2 = 0.45	3.28086
251.9 K, 135.5 kPa, w2 = 0.45	4.37034
251.9 K, 231.8 kPa, w2 = 0.45	7.75442
252.28 K, 125.8 kPa, w2 = 0.5	3.8957
252.28 K, 164.9 kPa, w2 = 0.5	5.1893
252.29 K, 95.7 kPa, w2 = 0.5	2.9246
252.29 K, 215.3 kPa, w2 = 0.5	6.9121
252.3 K, 277.7 kPa, w2 = 0.5	9.2069
254.94 K, 147.3 kPa, w2 = 0.65	4.0008
254.94 K, 193.1 kPa, w2 = 0.65	5.32
254.94 K, 251.7 kPa, w2 = 0.65	7.0741
254.95 K, 111.9 kPa, w2 = 0.65	3.0009
255.01 K, 161.7 kPa, w2 = 0.55	4.7449
255.01 K, 211.6 kPa, w2 = 0.55	6.3095
255.01 K, 275.1 kPa, w2 = 0.55	8.3897
255.02 K, 122.9 kPa, w2 = 0.55	3.5683
255.02 K, 242.1 kPa, w2 = 0.6	7.0088
255.03 K, 107.3 kPa, w2 = 0.6	2.9809
255.03 K, 141.3 kPa, w2 = 0.6	3.9638
255.03 K, 185.5 kPa, w2 = 0.6	5.2708
255.79 K, 278.4 kPa, w2 = 0.45	9.23624
255.8 K, 213.6 kPa, w2 = 0.45	6.93377
255.81 K, 124.4 kPa, w2 = 0.45	3.90764
255.81 K, 163.3 kPa, w2 = 0.45	5.20515
255.82 K, 214.2 kPa, w2 = 0.4	7.34761
255.82 K, 276.5 kPa, w2 = 0.4	9.7875
255.83 K, 125 kPa, w2 = 0.4	4.14099
255.83 K, 163.9 kPa, w2 = 0.4	5.51597
256.28 K, 141.3 kPa, w2 = 0.5	4.27286
256.28 K, 185.6 kPa, w2 = 0.5	5.69162
256.28 K, 242.9 kPa, w2 = 0.5	7.58146
256.28 K, 314.6 kPa, w2 = 0.5	10.099
256.29 K, 107.2 kPa, w2 = 0.5	3.20772
258.98 K, 181.5 kPa, w2 = 0.65	4.8943
258.99 K, 138.2 kPa, w2 = 0.65	3.6806
258.99 K, 237.5 kPa, w2 = 0.65	6.508
259 K, 308.1 kPa, w2 = 0.65	8.6533
259.04 K, 159.4 kPa, w2 = 0.6	4.3995
259.04 K, 209.2 kPa, w2 = 0.6	5.8501
259.04 K, 273.1 kPa, w2 = 0.6	7.7791
259.05 K, 121 kPa, w2 = 0.6	3.3086
259.15 K, 246.1 kPa, w2 = 0.55	7.2337
259.15 K, 319.6 kPa, w2 = 0.55	9.6189
259.16 K, 143 kPa, w2 = 0.55	4.0909
259.16 K, 188 kPa, w2 = 0.55	5.4398
260.14 K, 233.5 kPa, w2 = 0.45	7.48249
260.15 K, 178.4 kPa, w2 = 0.45	5.61717
260.16 K, 136 kPa, w2 = 0.45	4.21669
260.16 K, 216.7 kPa, w2 = 0.5	6.56707
260.16 K, 304 kPa, w2 = 0.45	9.96648
260.17 K, 104.4 kPa, w2 = 0.45	3.16556
260.18 K, 117.7 kPa, w2 = 0.4	3.78056
260.19 K, 155.8 kPa, w2 = 0.4	5.03578
260.19 K, 265.9 kPa, w2 = 0.4	8.93493
260.2 K, 125.4 kPa, w2 = 0.5	3.70054
260.2 K, 165.1 kPa, w2 = 0.5	4.92963
260.21 K, 95 kPa, w2 = 0.5	2.77802
260.25 K, 204 kPa, w2 = 0.4	6.70606
260.39 K, 282.8 kPa, w2 = 0.5	8.73987
263.01 K, 137.7 kPa, w2 = 0.65	3.5955
263.01 K, 237 kPa, w2 = 0.65	6.3575
263.01 K, 308.7 kPa, w2 = 0.65	8.4537
263.02 K, 181 kPa, w2 = 0.65	4.781
263.04 K, 222.9 kPa, w2 = 0.55	6.3877
263.05 K, 128.9 kPa, w2 = 0.55	3.6124
263.05 K, 219.6 kPa, w2 = 0.6	6.0704
263.05 K, 286.9 kPa, w2 = 0.6	8.072
263.05 K, 291.1 kPa, w2 = 0.55	8.4935
263.06 K, 167.2 kPa, w2 = 0.6	4.5651
263.06 K, 169.8 kPa, w2 = 0.55	4.8035
263.06 K, 376.6 kPa, w2 = 0.55	11.2936
263.07 K, 371.3 kPa, w2 = 0.6	10.733
264.02 K, 234.6 kPa, w2 = 0.45	7.35423
264.02 K, 305.6 kPa, w2 = 0.45	9.80334
264.03 K, 136.3 kPa, w2 = 0.45	4.14766
264.03 K, 179.2 kPa, w2 = 0.45	5.52482
264.03 K, 395.1 kPa, w2 = 0.45	13.0578
264.05 K, 220.5 kPa, w2 = 0.4	7.15058
264.05 K, 288.1 kPa, w2 = 0.4	9.52478
264.06 K, 127.7 kPa, w2 = 0.4	4.02995
264.06 K, 168.1 kPa, w2 = 0.4	5.36802
264.06 K, 373.8 kPa, w2 = 0.4	12.6873
264.29 K, 216 kPa, w2 = 0.5	6.42237
264.29 K, 282.6 kPa, w2 = 0.5	8.55501
264.29 K, 367.3 kPa, w2 = 0.5	11.3955
264.3 K, 124.9 kPa, w2 = 0.5	3.61957
264.3 K, 164.5 kPa, w2 = 0.5	4.82138
266.99 K, 289.8 kPa, w2 = 0.65	7.7396
267.01 K, 221.7 kPa, w2 = 0.65	5.82
267.01 K, 375.8 kPa, w2 = 0.65	10.2907
267.02 K, 128.5 kPa, w2 = 0.65	3.2915
267.02 K, 169 kPa, w2 = 0.65	4.3767
267.04 K, 261.1 kPa, w2 = 0.55	7.4247
267.04 K, 340.3 kPa, w2 = 0.55	9.8728
267.05 K, 199.2 kPa, w2 = 0.55	5.5837
267.05 K, 438.6 kPa, w2 = 0.55	13.1279
267.07 K, 138.6 kPa, w2 = 0.6	3.6841
267.07 K, 151.4 kPa, w2 = 0.55	4.1987
267.07 K, 182.7 kPa, w2 = 0.6	4.8989
267.07 K, 239.8 kPa, w2 = 0.6	6.5142
267.07 K, 313.2 kPa, w2 = 0.6	8.6621
267.08 K, 405.7 kPa, w2 = 0.6	11.5178
267.95 K, 114.5 kPa, w2 = 0.4	3.5398
267.95 K, 150.8 kPa, w2 = 0.4	4.71519
267.95 K, 198.3 kPa, w2 = 0.4	6.28082
267.96 K, 259.7 kPa, w2 = 0.4	8.36602
268 K, 338.5 kPa, w2 = 0.4	11.1424
268.07 K, 437.9 kPa, w2 = 0.4	14.8381
268.15 K, 234.6 kPa, w2 = 0.45	7.16341
268.15 K, 306.8 kPa, w2 = 0.45	9.54198
268.15 K, 398.6 kPa, w2 = 0.45	12.7103
268.16 K, 135.7 kPa, w2 = 0.45	4.03719
268.16 K, 178.7 kPa, w2 = 0.45	5.37765
268.22 K, 133.2 kPa, w2 = 0.5	3.80047
268.23 K, 175.4 kPa, w2 = 0.5	5.06234
268.24 K, 230.4 kPa, w2 = 0.5	6.74301
268.24 K, 301.4 kPa, w2 = 0.5	8.98179
268.25 K, 391.6 kPa, w2 = 0.5	11.9637
270.98 K, 225.5 kPa, w2 = 0.55	6.2618
270.99 K, 171.5 kPa, w2 = 0.55	4.709
270.99 K, 295.2 kPa, w2 = 0.55	8.3263
270.99 K, 384.1 kPa, w2 = 0.55	11.0715
271.01 K, 493 kPa, w2 = 0.55	14.7211
271.03 K, 140.5 kPa, w2 = 0.65	3.5483
271.03 K, 242.2 kPa, w2 = 0.65	6.274
271.03 K, 316.1 kPa, w2 = 0.65	8.3428
271.04 K, 184.7 kPa, w2 = 0.65	4.7181
271.04 K, 466.5 kPa, w2 = 0.6	13.2292
271.05 K, 409.9 kPa, w2 = 0.65	11.0926
271.08 K, 361.5 kPa, w2 = 0.6	9.9474
271.1 K, 160.8 kPa, w2 = 0.6	4.2305
271.1 K, 211.6 kPa, w2 = 0.6	5.6254
271.1 K, 277.5 kPa, w2 = 0.6	7.4803
271.58 K, 526.1 kPa, w2 = 0.5	16.4345
271.6 K, 411.1 kPa, w2 = 0.5	12.337
271.62 K, 241.2 kPa, w2 = 0.5	6.95248
271.62 K, 316.5 kPa, w2 = 0.5	9.26115
271.64 K, 182.9 kPa, w2 = 0.5	5.21904
271.65 K, 138.7 kPa, w2 = 0.5	3.918
272.12 K, 507.5 kPa, w2 = 0.45	16.4006
272.13 K, 175.9 kPa, w2 = 0.45	5.20923
272.13 K, 231.2 kPa, w2 = 0.45	6.93891
272.13 K, 289.6 kPa, w2 = 0.4	9.21252
272.13 K, 302.5 kPa, w2 = 0.45	9.24297
272.13 K, 393.6 kPa, w2 = 0.45	12.3121
272.14 K, 127.8 kPa, w2 = 0.4	3.89783
272.14 K, 168.4 kPa, w2 = 0.4	5.19207
272.14 K, 221.2 kPa, w2 = 0.4	6.91602
